Assay results published in patent publication US20250129096A1, “ANNULATED 2-AMINO-3-CYANO THIOPHENES AND DERIVATIVES FOR THE TREATMENT OF CANCER” (Boehringer Ingelheim Int'l GmbH Corp., priority 2021, published 2025).

Columns and labels:
KRAS G12C Ba/F3 cells = KRAS G12C Ba/F3 cells (Homo sapiens, UniProt P01116, G12C, cells depend on it); assay: Ba/F3 proliferation assay, KRAS G12C; assay type: cell-based; conditions: 72 h, AlamarBlue; read-out: KRAS G12C Ba/F3 IC50
Method: To generate KRASG12-dependent Ba/F3 models, Ba/F3 cells are transduced with retroviruses containing vectors that harbor KRASG12 isoforms. Platinum-E cells (Cell Biolabs) are used for retrovirus packaging. Retrovirus is added to Ba/F3 cells. To ensure infection, 4 μg/mL polybrene is added and cells are spinfected. […] Cells with an infection efficiency of 10% to 20% are further cultivated and puromycin selection with 1 μg/mL is initiated. As a control, parental Ba/F3 cells are used to show selection status. Selection is considered successful when parental Ba/F3 cells cultures died. To evaluate the transforming potential of KRASG12 mutations, the growth medium is no longer supplemented with IL-3. Ba/F3 cells harboring the empty vector are used as a control. Approximately ten days before conducting the experiments, puromycin is left out. […] All treatments are performed in technical duplicates. […] AlamarBlue™(ThermoFisher), a viability stain, is added and fluorescence measured in the PerkinElmer Envision HTS Multilabel Reader. The raw data are imported into and analyzed with the Boehringer Ingelheim proprietary software MegaLab (curve fitting based on the program PRISM, GraphPad Inc.).

KRAS (G12D)::SOS1 = molecular target: T1, KRAS (G12D)::SOS1 (Homo sapiens, UniProt P01116, G12D); assay: KRAS::SOS1 AlphaScreen binding assay, KRAS G12D
T1 construct: KRAS (G12D) 1-169, N-terminal 6His-tag, C-terminal avi-tag; 6His-tag (N); purchased Xtal BioStructures, Inc. (KRAS G12D); Viva Biotech Ltd (SOS1)
T1 sequence (P01116 1-169 isoform P01116-2 G12D): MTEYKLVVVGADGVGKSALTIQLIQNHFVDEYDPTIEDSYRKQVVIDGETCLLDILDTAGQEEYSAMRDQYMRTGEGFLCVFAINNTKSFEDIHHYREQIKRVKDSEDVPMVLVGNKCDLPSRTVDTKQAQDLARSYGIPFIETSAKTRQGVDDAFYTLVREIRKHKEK
Method: (§1) Low IC50 values in this assay setting are indicative of strong inhibition of protein-protein interaction between SOS1 and KRAS:
(§2) These assays measure the inhibitory effect of compounds on KRAS mutant protein-protein interactions using the Alpha Screen technology by Perkin Elmer.
(§3) For the chosen highest assay concentration of 100 μM, 150 nL of compound solution are transferred from a 10 mM DMSO compound stock solution. A series of eleven fivefold dilutions per compound are transferred to the assay plate, compound dilutions are tested in duplicates. DMSO are added as backfill to a total volume of 150 nL.
(§4) The assays run on a fully automated robotic system in a darkened room below 100 Lux. To 150 nl of compound dilution 10 μl of a mix including KRAS mutant protein, SOS1 (final assay concentrations see above) and GDP nucleotide (Sigma G7127; final assay concentration 10 μM) in assay buffer (1×PBS, 0.1% BSA, 0.05% Tween 20) are added into columns 1-24. After 30 minutes incubation time 5 μl of Alpha Screen bead mix in assay buffer are added into columns 1-23.
(§5) Plates are kept at room temperature in a darkened incubator. After an additional 60 minutes incubation time the signal is measured in a PerkinElmer Envision HTS Multilabel Reader using the AlphaScreen specs from PerkinElmer.
(§6) IC50 values are calculated and analyzed with Boehringer Ingelheim's MEGALAB IC50 application using a 4 parametric logistic model.

KRAS (G12C)::SOS1 = molecular target: T2, KRAS (G12C)::SOS1 (Homo sapiens, UniProt P01116, C118S/C51S/C80L/G12C); assay: KRAS::SOS1 AlphaScreen binding assay, KRAS G12C
T2 construct: KRAS (G12C) 1-169, N-terminal 6His-tag for purification, cleaved off; 6His-tag (N, cleaved yes)
T2 sequence (P01116 1-169 isoform P01116-2 G12C/C51S/C80L/C118S): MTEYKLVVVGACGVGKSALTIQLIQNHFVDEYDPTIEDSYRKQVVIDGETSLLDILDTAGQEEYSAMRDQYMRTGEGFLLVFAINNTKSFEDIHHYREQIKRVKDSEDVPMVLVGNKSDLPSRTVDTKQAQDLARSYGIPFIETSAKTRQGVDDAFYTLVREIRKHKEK
Method: as §1, §2, §3, §4, §5, §6

[1] = test system: SK-CO-1 cells (CRC, G12V); assay: SK-CO-1 CTG proliferation assay (120 h); assay type: cell-based; conditions: Homo sapiens, CellTiter-Glo
Method: (§7) SK—CO-1 cells (ATCC HTB-39) are dispensed into 384-well plates, flat and clear bottom (Greiner, PNr. 781091) at a density of 500 cells per well in 60 μL EMEM (Sigma M5650)+10% Fetal Calf Serum (HyClone, PNr.: SH30084.03) and incubated at 37° C. in a CO2 incubator overnight. The next day, compounds (10 mM stock in DMSO) are added with the ECHO acoustic liquid handler system (Beckman Coulter), including DMSO controls. Plates are incubated for 120 h, and cell viability is measured using CellTiter-Glo luminescent cell viability reagent (Promega product code G7570). Viability (stated as percent of control) is defined as relative luminescence units RLU of each well divided by the RLU of cells in DMSO controls. IC50 values are determined from viability measurements by non-linear regression using a four-parameter model.

LOVO cells (CRC, G13D) = assay: LOVO CTG proliferation assay (120 h); assay type: cell-based; conditions: Homo sapiens, CellTiter-Glo
Method: as §7, with “LOVO” for “SK—CO-1”, “CCL-229)” for “HTB-39)”, “1000” for “500”, “DMEM” for “EMEM”, “D6429)+10%” for “M5650)+10%”

[2] = test system: SAS cells (HNSCC, wt amplified); assay: SAS CTG proliferation assay (120 h); assay type: cell-based; conditions: CellTiter-Glo
Method: as §7, with “SAS” for “SK—CO-1”, “(JCRB0260)” for “(ATCC HTB-39)”, “300” for “500”, “DMEM:F12 (Gibco 31330-038)+10%” for “EMEM (Sigma M5650)+10%”

Sequence of KRAS G12C Ba/F3 cells (P01116 whole entry G12C, canonical isoform): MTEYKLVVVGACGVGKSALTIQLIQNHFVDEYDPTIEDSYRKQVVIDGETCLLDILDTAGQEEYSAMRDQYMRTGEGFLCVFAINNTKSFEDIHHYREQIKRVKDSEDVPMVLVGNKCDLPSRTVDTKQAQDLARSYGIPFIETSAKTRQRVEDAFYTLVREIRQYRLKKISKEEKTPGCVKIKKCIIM

Row | GI50 (KRAS G12C Ba/F3 cells) [nM] | IC50 (KRAS (G12D)::SOS1) [nM] | IC50 (KRAS (G12C)::SOS1) [nM] | IC50 [1] [nM] | IC50 (LOVO cells (CRC, G13D)) [nM] | SMILES | IC50 [2] [nM]
1 | 88 | 3 | 7 | 563 | 2870 | C[C@H]1CNCCCN1c1nccc(-c2noc3c2CCC[C@@]32CCCc3sc(N)c(C#N)c32)n1 (single isomer, unassigned) [IIb-5] | 541
2 | 666 | 31 | 44 | 2690 | 2420 | CC1Cc2c(-c3ccnc(N4CCCNC[C@@H]4C)n3)noc2C2(CCCc3sc(N)c(C#N)c32)C1 (some centres unmarked) [IIb-1] | 8230
3 | 507 | 21 | 39 | 6240 | 3250 | C[C@H]1CNCCCN1c1nccc(-c2noc3c2CC(F)(F)CC32CCCc3sc(N)c(C#N)c32)n1 (some centres unmarked) [IIb-2] | 2960
4 | 23 | 2 | 3 | 285 |  | C[C@H](Oc1ccnc(-c2noc3c2CCC[C@@]32CCCc3sc(N)c(C#N)c32)n1)[C@@H]1CCCN1C [IIb-3] | 4960
5 | 485 | 13 | 19 | 2390 | 1660 | C[C@H]1CNCCCN1c1nccc(-c2noc3c2CSCC32CCCc3sc(N)c(C#N)c32)n1 (some centres unmarked) [IIb-4] | 8080
6 | 131 | 2 | 4 | 455 | 479 | C[C@H]1CNCCCN1c1nccc(-c2noc3c2OCCC32CCCc3sc(N)c(C#N)c32)n1 (some centres unmarked) [IIb-7] | 6600
7 | 254 | 4 | 8 | 1030 | 3810 | C[C@H](Oc1nccc(-c2noc3c2CCC[C@@]32CCCc3sc(N)c(C#N)c32)n1)[C@@]1(C)CCCN1C [IIe-1] | 4530
8 | 126 | 5 | 14 | 457 | 1100 | C[C@@H]1NCCCN(c2nccc(-c3onc4c3CCC[C@@]43CCCc4sc(N)c(C#N)c43)n2)[C@H]1C [Ib-2] | 1090
9 | 295 | 4 | 9 | 930 | 7250 | C[C@H]1CNCCCN1c1ncnc(-c2onc3c2CCC[C@@]32CCCc3sc(N)c(C#N)c32)n1 [Ib-4] | 57
10 | 42 | 1 | 3 | 4680 | 10000 | C[C@H]1[C@@H]2CCCN2CCCN1c1nccc(-c2onc3c2CCC[C@@]32CCCc3sc(N)c(C#N)c32)n1 [Id-1] | 3990
11 | 43 | 2 | 3 | 2520 | 333 | CO[C@@H]1C[C@@H]([C@H](C)Oc2nccc(-c3onc4c3CCC[C@@]43CCCc4sc(N)c(C#N)c43)n2)N(C)C1 [Ie-1] | 13600
12 | 155 | 2 | 5 | 1040 | 567 | C[C@H](Oc1nccc(-c2onc3c2CCC[C@@]32CCCc3sc(N)c(C#N)c32)n1)[C@@H]1C[C@@H](F)CN1C [Ie-2] | 8000
13 | 49 | 3 | 7 | 817 | 539 | CCN1[C@H]2C[C@H]2C[C@H]1[C@H](C)Oc1nccc(-c2onc3c2CCC[C@@]32CCCc3sc(N)c(C#N)c32)n1 [Ie-3] | 370
14 | 118 | 4 | 6 | 798 | 178 | CC(Oc1nccc(-c2onc3c2CCC[C@@]32CCCc3sc(N)c(C#N)c32)n1)C12CCCN1CCC2 (some centres unmarked) [Ie-5] | 1710
15 | 134 | 5 | 8 | 2730 | 3060 | C[C@H]1CNCCCN1c1nccc(-c2onc3c2CCC[C@@]32CCCc3sc(N)c(C#N)c32)n1 [If-1] | 8270
16 | 8510 | 6 | 15 | 7920 | 10900 | C[C@H](Oc1nccc(-c2onc3c2CCC[C@@]32CCCc3sc(N)c(C#N)c32)n1)[C@@H]1C[C@@H]2C[C@@H]2N1 [If-2] | 8840
17 | 72 | 4 | 7 | 398 | 618 | C[C@H](Oc1nccc(-c2onc3c2CCC[C@@]32CCCc3sc(N)c(C#N)c32)n1)[C@@H]1C[C@@H]2C[C@@H]2N1C [Ih-1] | 428

Row | SMILES | GI50 (KRAS G12C Ba/F3 cells) [nM] | IC50 (KRAS (G12D)::SOS1) [nM] | IC50 (KRAS (G12C)::SOS1) [nM] | IC50 [1] [nM] | IC50 (LOVO cells (CRC, G13D)) [nM] | IC50 [2] [nM]
18 | C[C@H]1CNCCN1c1nccc(-c2noc3c2CCC[C@@]32CCCc3sc(N)c(C#N)c32)n1 [IIf-1] |  |  |  | 600 | 479 | 1380
